Publication PMC6979384, “Characterization of the plant homeodomain (PHD) reader family for their histone tail interactions” (Epigenetics & Chromatin, 2020)
Values belong to the substance of their own block, whether it stands above or below them.

What was measured:
Experiment in all cases: Histone peptide microarray
Format in all cases: binding, human
[1] = test system: DPF2 (PPC2W2); details: DPF2 (PPC2W2); for Array Heatmap value (peptide array binding signal): GST-tagged, arrays performed twice, n of 4
Summary of the method: (§1)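 Mean ± SD of 4 replicate array intensities; GST-PHD finger at 0.5 μM against 293 PTM-bearing histone peptides.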

[2] = test system: PHRF1 (RP); details: PHRF1 (RP); for Array Heatmap value (peptide array binding signal): GST-tagged, arrays performed twice, n of 4
Summary of the method: as §1

[3] = test system: MLL5; details: for Array Heatmap value (peptide array binding signal): MLL5, GST-tagged, arrays performed twice, n of 4
Summary of the method: as §1

[4] = test system: ING4; details: for Array Heatmap value (peptide array binding signal): ING4, GST-tagged, arrays performed twice, n of 4
Summary of the method: as §1

[5] = test system: RAG2; details: for Array Heatmap value (peptide array binding signal): RAG2, GST-tagged, arrays performed twice, n of 4
Summary of the method: as §1

[6] = test system: PHF13; details: for Array Heatmap value (peptide array binding signal): PHF13, GST-tagged, arrays performed twice, n of 4
Summary of the method: as §1

[7] = test system: KDM5A (1); details: KDM5A (1); for Array Heatmap value (peptide array binding signal): GST-tagged, arrays performed twice, n of 4
Summary of the method: as §1

[8] = test system: MORC3 (CW); details: MORC3 (CW); for Array Heatmap value (peptide array binding signal): GST-tagged, arrays performed twice, n of 4
Summary of the method: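 Readout is array binding signal, reported as the mean and standard deviation over four replicates. Each purified GST-fused PHD domain was incubated at 0.5 μM with a library of 293 modified histone peptides.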

[9] = test system: ING1; details: for Array Heatmap value (peptide array binding signal): ING1, GST-tagged, arrays performed twice, n of 4
Summary of the method: as §1

[10] = test system: SP140L; details: SP140L; for Array Heatmap value (peptide array binding signal): GST-tagged, arrays performed twice, n of 4
Summary of the method: as §1

[11] = test system: KDM7A; details: KDM7A; for Array Heatmap value (peptide array binding signal): GST-tagged, arrays performed twice, n of 4
Summary of the method: as §1

[12] = test system: KDM5A (3); details: KDM5A (3); for Array Heatmap value (peptide array binding signal): GST-tagged, arrays performed twice, n of 4
Summary of the method: as §1

[13] = test system: AIRE (PP); details: AIRE (PP); for Array Heatmap value (peptide array binding signal): GST-tagged, arrays performed twice, n of 4
Summary of the method: as §1

[14] = test system: BPTF (PB); details: BPTF (PB); for Array Heatmap value (peptide array binding signal): GST-tagged, arrays performed twice, n of 4
Summary of the method: as §1

[15] = test system: KDM4C (TTP); details: KDM4C (TTP); for Array Heatmap value (peptide array binding signal): GST-tagged, arrays performed twice, n of 4
Summary of the method: as §1

[16] = test system: KDM5B (3); details: KDM5B (3); for Array Heatmap value (peptide array binding signal): GST-tagged, arrays performed twice, n of 4
Summary of the method: as §1

[17] = test system: CHD4 (PPCC); details: CHD4 (PPCC); for Array Heatmap value (peptide array binding signal): GST-tagged, arrays performed twice, n of 4
Summary of the method: as §1

[18] = test system: TRIM66 (PB); details: TRIM66 (PB); for Array Heatmap value (peptide array binding signal): GST-tagged, arrays performed twice, n of 4
Summary of the method: as §1

[19] = test system: CHD5 (PPCC); details: CHD5 (PPCC); for Array Heatmap value (peptide array binding signal): GST-tagged, arrays performed twice, n of 4
Summary of the method: as §1

[20] = test system: BAZ2B; details: BAZ2B; for Array Heatmap value (peptide array binding signal): GST-tagged, arrays performed twice, n of 4
Summary of the method: as §1

[21] = test system: CHD5 (PCC); details: CHD5 (PCC); for Array Heatmap value (peptide array binding signal): GST-tagged, arrays performed twice, n of 4
Summary of the method: as §1

[22] = test system: ING2; details: for Array Heatmap value (peptide array binding signal): ING2, GST-tagged, arrays performed twice, n of 4
Summary of the method: as §1

[23] = test system: ING3; details: for Array Heatmap value (peptide array binding signal): ING3, GST-tagged, arrays performed twice, n of 4
Summary of the method: as §1

[24] = test system: DIDO1; details: for Array Heatmap value (peptide array binding signal): DIDO1, GST-tagged, arrays performed twice, n of 4
Summary of the method: as §1

[25] = test system: ING5; details: for Array Heatmap value (peptide array binding signal): ING5, GST-tagged, arrays performed twice, n of 4
Summary of the method: as §1

[26] = test system: PHF21A; details: PHF21A; for Array Heatmap value (peptide array binding signal): GST-tagged, arrays performed twice, n of 4
Summary of the method: as §1

[27] = test system: PHF23; details: for Array Heatmap value (peptide array binding signal): PHF23, GST-tagged, arrays performed twice, n of 4
Summary of the method: as §1

[28] = test system: PHF8; details: for Array Heatmap value (peptide array binding signal): PHF8, GST-tagged, arrays performed twice, n of 4
Summary of the method: as §1

[29] = test system: KDM5B (1); details: KDM5B (1); for Array Heatmap value (peptide array binding signal): GST-tagged, arrays performed twice, n of 4
Summary of the method: as §1

[30] = test system: PHF2; details: for Array Heatmap value (peptide array binding signal): PHF2, GST-tagged, arrays performed twice, n of 4
Summary of the method: as §1

[31] = test system: TAF3; details: for Array Heatmap value (peptide array binding signal): TAF3, GST-tagged, arrays performed twice, n of 4
Summary of the method: as §1

[32] = sheet "Array Heatmap", each array performed twice, total n = 4

Array Heatmap value (peptide array binding signal) [1]: 0.7332
Array Heatmap value (peptide array binding signal) [2]: 0.5526
Array Heatmap value (peptide array binding signal) [3]: 0.6075
Array Heatmap value (peptide array binding signal) [4]: 0.5489
Array Heatmap value (peptide array binding signal) [5]: 0.2901
Array Heatmap value (peptide array binding signal) [6]: 0.7148
Array Heatmap value (peptide array binding signal) [7]: 0.5728
Array Heatmap value (peptide array binding signal) [8]: 0.41
Array Heatmap value (peptide array binding signal) [9]: 0.6463
Array Heatmap value (peptide array binding signal) [10]: 0.402
Array Heatmap value (peptide array binding signal) [11]: 0.3972
Array Heatmap value (peptide array binding signal) [12]: 0.5161
Array Heatmap value (peptide array binding signal) [13]: 0.4899
Array Heatmap value (peptide array binding signal) [14]: 0.4151
Array Heatmap value (peptide array binding signal) [15]: 0.5731
Array Heatmap value (peptide array binding signal) [16]: 0.4928
Array Heatmap value (peptide array binding signal) [17]: 0.6736
Array Heatmap value (peptide array binding signal) [18]: 0.6284
Array Heatmap value (peptide array binding signal) [19]: 0.6612
Array Heatmap value (peptide array binding signal) [20]: 0.5322
Array Heatmap value (peptide array binding signal) [21]: 0.8019
Array Heatmap value (peptide array binding signal) [22]: 0.6555
Array Heatmap value (peptide array binding signal) [23]: 0.5657
Array Heatmap value (peptide array binding signal) [24]: 0.819
Array Heatmap value (peptide array binding signal) [25]: 0.4437
Array Heatmap value (peptide array binding signal) [26]: 0.5223
Array Heatmap value (peptide array binding signal) [27]: 0.594
Array Heatmap value (peptide array binding signal) [28]: 0.4123
Array Heatmap value (peptide array binding signal) [29]: 0.7243
Array Heatmap value (peptide array binding signal) [30]: 0.6877
Array Heatmap value (peptide array binding signal) [31]: 0.3058
Substance: H3K27acK36me1 (21-44): H3 21-44

Array Heatmap value (peptide array binding signal) [1]: 0.5691
Array Heatmap value (peptide array binding signal) [2]: 0.3806
Array Heatmap value (peptide array binding signal) [3]: 0.5228
Array Heatmap value (peptide array binding signal) [4]: 0.4009
Array Heatmap value (peptide array binding signal) [5]: 0.2177
Array Heatmap value (peptide array binding signal) [6]: 0.5544
Array Heatmap value (peptide array binding signal) [7]: 0.4202
Array Heatmap value (peptide array binding signal) [8]: 0.3311
Array Heatmap value (peptide array binding signal) [9]: 0.4651
Array Heatmap value (peptide array binding signal) [10]: 0.3288
Array Heatmap value (peptide array binding signal) [11]: 0.3276
Array Heatmap value (peptide array binding signal) [12]: 0.374
Array Heatmap value (peptide array binding signal) [13]: 0.423
Array Heatmap value (peptide array binding signal) [14]: 0.3137
Array Heatmap value (peptide array binding signal) [15]: 0.4301
Array Heatmap value (peptide array binding signal) [16]: 0.5071
Array Heatmap value (peptide array binding signal) [17]: 0.5173
Array Heatmap value (peptide array binding signal) [18]: 0.5321
Array Heatmap value (peptide array binding signal) [19]: 0.4774
Array Heatmap value (peptide array binding signal) [20]: 0.4009
Array Heatmap value (peptide array binding signal) [21]: 0.7369
Array Heatmap value (peptide array binding signal) [22]: 0.5829
Array Heatmap value (peptide array binding signal) [23]: 0.4032
Array Heatmap value (peptide array binding signal) [24]: 0.5747
Array Heatmap value (peptide array binding signal) [25]: 0.3047
Array Heatmap value (peptide array binding signal) [26]: 0.3977
Array Heatmap value (peptide array binding signal) [27]: 0.4966
Array Heatmap value (peptide array binding signal) [28]: 0.3218
Array Heatmap value (peptide array binding signal) [29]: 0.6134
Array Heatmap value (peptide array binding signal) [30]: 0.4522
Array Heatmap value (peptide array binding signal) [31]: 0.2578
Substance: H4K20ac: H4 1-23 [Peptide H4K20ac]

Substance: H4K5butK8butK12but: H4 1-23
Array Heatmap value (peptide array signal) [1, 32]: 0.6505
Array Heatmap value (peptide array signal) [2, 32]: 0.4335
Array Heatmap value (peptide array signal) ([3]; MLL5, sheet "Array Heatmap", each array performed twice, total n = 4): 0.5293
Array Heatmap value (peptide array signal) ([4]; ING4, sheet "Array Heatmap", each array performed twice, total n = 4): 0.4352
Array Heatmap value (peptide array signal) ([5]; RAG2, sheet "Array Heatmap", each array performed twice, total n = 4): 0.2246
Array Heatmap value (peptide array signal) ([6]; PHF13, sheet "Array Heatmap", each array performed twice, total n = 4): 0.5714
Array Heatmap value (peptide array signal) [7, 32]: 0.419
Array Heatmap value (peptide array signal) [8, 32]: 0.3355
Array Heatmap value (peptide array signal) ([9]; ING1, sheet "Array Heatmap", each array performed twice, total n = 4): 0.5532
Array Heatmap value (peptide array signal) [10, 32]: 0.3551
Array Heatmap value (peptide array signal) [11, 32]: 0.3032
Array Heatmap value (peptide array signal) [12, 32]: 0.4238
Array Heatmap value (peptide array signal) [13, 32]: 0.3828
Array Heatmap value (peptide array signal) [14, 32]: 0.3272
Array Heatmap value (peptide array signal) [15, 32]: 0.4273
Array Heatmap value (peptide array signal) [16, 32]: 0.4196
Array Heatmap value (peptide array signal) [17, 32]: 0.5302
Array Heatmap value (peptide array signal) [18, 32]: 0.5547
Array Heatmap value (peptide array signal) [19, 32]: 0.5134
Array Heatmap value (peptide array signal) [20, 32]: 0.414
Array Heatmap value (peptide array signal) [21, 32]: 0.661
Array Heatmap value (peptide array signal) ([22]; ING2, sheet "Array Heatmap", each array performed twice, total n = 4): 0.5892
Array Heatmap value (peptide array signal) ([23]; ING3, sheet "Array Heatmap", each array performed twice, total n = 4): 0.4441
Array Heatmap value (peptide array signal) ([24]; DIDO1, sheet "Array Heatmap", each array performed twice, total n = 4): 0.6712
Array Heatmap value (peptide array signal) ([25]; ING5, sheet "Array Heatmap", each array performed twice, total n = 4): 0.3275
Array Heatmap value (peptide array signal) [26, 32]: 0.3738
Array Heatmap value (peptide array signal) ([27]; PHF23, sheet "Array Heatmap", each array performed twice, total n = 4): 0.5206
Array Heatmap value (peptide array signal) ([28]; PHF8, sheet "Array Heatmap", each array performed twice, total n = 4): 0.3282
Array Heatmap value (peptide array signal) [29, 32]: 0.5776
Array Heatmap value (peptide array signal) ([30]; PHF2, sheet "Array Heatmap", each array performed twice, total n = 4): 0.5429
Array Heatmap value (peptide array signal) ([31]; TAF3, sheet "Array Heatmap", each array performed twice, total n = 4): 0.2569
